In US8609672B2, “Piperazinylpyrimidine analogues as protein kinase inhibitors” (University of the Pacific, priority 2010, dated 2013):

Tested on: not given
Conditions: not given

| SMILES | melting point [°C] |
| --- | --- |
| CCc1cnc(N2CCN(c3ncnc4ccccc34)CC2)nc1 [Compound 3, 4-(4-(5-ethylpyrimidin-2-yl)piperazin-1-yl)quinazoline] | > 250 |
| CCc1cnc(N2CCN(c3nc(-c4ccccc4)nc4ccccc34)CC2)nc1 [Compound 5, 4-(4-(5-ethylpyrimidin-2-yl)piperazin-1-yl)-2-phenylquinazoline] | 137 to 138 |
| c1ccc(Cc2cnc(N3CCN(c4nc(-c5ccccc5)nc5ccccc45)CC3)nc2)cc1 [Compound 6, 4-(4-(5-benzylpyrimidin-2-yl)piperazin-1-yl)-2-phenylquinazoline] | 135 to 137 |
| CCc1cnc(N2CCN(C(=O)c3cccc(Nc4ncnc5ccccc45)c3)CC2)nc1 [Compound 13, (4-(5-ethylpyrimidin-2-yl)piperazin-1-yl)(3-(quinazolin-4-ylamino)phenyl)methanone] | 146 to 147 |
| CCc1cnc(N2CCN(C(=O)c3ccc(Nc4ncnc5ccccc45)cc3)CC2)nc1 [Compound 14, (4-(5-ethylpyrimidin-2-yl)piperazin-1-yl)(4-(quinazolin-4-ylamino)phenyl)methanone] | 248 to 249 |
| O=C(c1ccc(Nc2ncnc3ccccc23)cc1)N1CCN(c2ncc(Cc3ccccc3)cn2)CC1 [Compound 17, (4-(5-benzylpyrimidin-2-yl)piperazin-1-yl)(4-(quinazolin-4-ylamino)phenyl)methanone] | 245 to 247 |
| O=C(c1ccc(CNc2ncnc3ccccc23)cc1)N1CCN(c2ncc(Cc3ccccc3)cn2)CC1 [Compound 18, (4-(5-benzylpyrimidin-2-yl)piperazin-1-yl)(4-((quinazolin-4-ylamino)methyl)phenyl)methanone] | 99 to 101 |
| CCc1cnc(N2CCN(C(=O)c3ccccc3NC3=c4ccccc4=NCN3c3ccccc3)CC2)nc1 [Compound 19, (4-(5-ethylpyrimidin-2-yl)piperazin-1-yl)(2-(3-phenylquinazolin-4-ylamino)phenyl)methanone] | 204 to 205 |
| CCc1cnc(N2CCN(C(=O)c3ccccc3NC3(c4ccccc4)NC=Nc4ccccc43)CC2)nc1 (centres unmarked) [Compound 20, (4-(5-ethylpyrimidin-2-yl)piperazin-1-yl)(2-(4-phenylquinazolin-4-ylamino)phenyl)methanone] | > 250 |
| CCc1cnc(N2CCN(C(=O)c3ccc(CNc4nc(-c5ccccc5)nc5ccccc45)cc3)CC2)nc1 [Compound 21, (4-(5-ethylpyrimidin-2-yl)piperazin-1-yl)(4-((2-phenylquinazolin-4ylamino)methyl)phenyl)methanone] | 207 to 208 |
| O=C(c1cccc(Nc2nc(-c3ccccc3)nc3ccccc23)c1)N1CCN(c2ncc(Cc3ccccc3)cn2)CC1 [Compound 22, (4-(5-benzylpyrimidin-2-yl)piperazin-1-yl)(3-(2-phenylquinazolin-4ylamino)phenyl)methanone] | 214 to 215 |
| O=C(c1ccc(Nc2nc(-c3ccccc3)nc3ccccc23)cc1)N1CCN(c2ncc(Cc3ccccc3)cn2)CC1 [Compound 23, (4-(5-benzylpyrimidin-2-yl)piperazin-1-yl)(4-(2-phenylquinazolin-4ylamino)phenyl)methanone] | > 250 |
| O=C(c1ccc(CNc2nc(-c3ccccc3)nc3ccccc23)cc1)N1CCN(c2ncc(Cc3ccccc3)cn2)CC1 [Compound 24, (4-(5-benzylpyrimidin-2-yl)piperazin-1-yl)(4-((2-phenylquinazolin-4-ylamino)methyl)phenyl)methanone] | 216 to 217 |

Biological target: KIT (Homo sapiens, UniProt P10721)
Sequence (P10721 26-976): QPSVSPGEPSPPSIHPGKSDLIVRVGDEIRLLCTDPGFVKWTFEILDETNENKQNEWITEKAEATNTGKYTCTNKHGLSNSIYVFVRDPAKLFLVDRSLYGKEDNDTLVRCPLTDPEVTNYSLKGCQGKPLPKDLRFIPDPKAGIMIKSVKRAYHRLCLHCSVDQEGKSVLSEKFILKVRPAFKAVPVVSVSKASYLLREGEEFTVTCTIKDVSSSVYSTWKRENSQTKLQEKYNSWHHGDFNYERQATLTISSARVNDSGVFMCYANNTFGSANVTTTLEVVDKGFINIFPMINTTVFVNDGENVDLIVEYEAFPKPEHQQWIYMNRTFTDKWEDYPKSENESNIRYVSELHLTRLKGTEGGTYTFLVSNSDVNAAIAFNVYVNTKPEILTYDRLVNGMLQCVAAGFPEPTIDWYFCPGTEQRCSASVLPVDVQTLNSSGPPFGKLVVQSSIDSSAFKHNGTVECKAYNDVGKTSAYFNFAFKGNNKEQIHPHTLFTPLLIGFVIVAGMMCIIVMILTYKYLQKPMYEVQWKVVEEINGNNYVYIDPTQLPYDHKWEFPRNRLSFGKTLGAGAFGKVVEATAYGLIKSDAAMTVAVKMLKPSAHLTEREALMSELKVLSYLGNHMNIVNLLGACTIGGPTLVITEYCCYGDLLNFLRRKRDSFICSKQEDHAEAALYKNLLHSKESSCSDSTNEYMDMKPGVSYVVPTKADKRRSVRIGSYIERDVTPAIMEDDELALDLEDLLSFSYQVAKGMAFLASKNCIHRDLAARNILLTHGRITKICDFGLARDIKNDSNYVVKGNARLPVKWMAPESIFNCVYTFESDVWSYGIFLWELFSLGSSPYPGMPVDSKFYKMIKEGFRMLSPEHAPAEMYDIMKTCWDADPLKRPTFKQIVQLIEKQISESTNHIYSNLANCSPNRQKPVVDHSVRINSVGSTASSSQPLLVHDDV
Conditions: KIT wild-type; reference kinase inhibitors, from literature; cited from earlier work

| SMILES | Kd [nM] |
| --- | --- |
| COCC(=O)NC/C=C/c1ccc2ncnc(Nc3ccc(Oc4ccc(C)nc4)c(C)c3)c2c1 [CP-724714] | > 10000 |
| CCOc1cc2ncc(C#N)c(Nc3ccc(F)c(Cl)c3)c2cc1NC(=O)/C=C/CN(C)C [EKB-569] | > 10000 |
| Oc1ccc(-c2nc(-c3ccc(F)cc3)c(-c3ccncc3)[nH]2)cc1 [SB-202190] | > 10000 |

Same assay, conditions: cited from earlier work

| SMILES | Kd [nM] |
| --- | --- |
| NC(=O)c1ccc(-c2nc(-c3ccccn3)c(-c3ccc4c(c3)OCO4)[nH]2)cc1 [SB-431542] | > 10000 |
